Activity calls are given as the source filed them. No cut-off for these calls is given here.
Key:
[1] = test system: Radical scavenging activity
Description: Antioxidant activity of the compound assessed as DPPH radical scavenging activity after 60 mins

[2] = biological target: Cholinesterase (Equus caballus, UniProt P81908)
Description: Inhibition of horse serum BuChE using butyrylthiocholine iodide as substrate preincubated for 20 mins by Ellman's method

[3] = biological target: Acetylcholinesterase (Electrophorus electricus, UniProt O42275); assay: Inhibition of electric eel AChE using […] as substrate preincubated for 20 mins by Ellman's method
[4] = test system: HT-22; assay: Neuroprotective activity in mouse HT22 cells assessed as protection against H2O2-induced cell death at 3 to 30 uM preincubated for 30 mins prior to H2O2 challenge measured after 24 hrs by MTT assay; format: functional, cell-based
[5] = biological target: Acetylcholinesterase (Electrophorus electricus) (UniProt O42275); assay: Mixed type inhibition of electric eel AChE using […] as substrate by Lineweaver-Burk plot analysis
Sequence of Acetylcholinesterase (Electrophorus electricus) (O42275 24-633 limits assumed): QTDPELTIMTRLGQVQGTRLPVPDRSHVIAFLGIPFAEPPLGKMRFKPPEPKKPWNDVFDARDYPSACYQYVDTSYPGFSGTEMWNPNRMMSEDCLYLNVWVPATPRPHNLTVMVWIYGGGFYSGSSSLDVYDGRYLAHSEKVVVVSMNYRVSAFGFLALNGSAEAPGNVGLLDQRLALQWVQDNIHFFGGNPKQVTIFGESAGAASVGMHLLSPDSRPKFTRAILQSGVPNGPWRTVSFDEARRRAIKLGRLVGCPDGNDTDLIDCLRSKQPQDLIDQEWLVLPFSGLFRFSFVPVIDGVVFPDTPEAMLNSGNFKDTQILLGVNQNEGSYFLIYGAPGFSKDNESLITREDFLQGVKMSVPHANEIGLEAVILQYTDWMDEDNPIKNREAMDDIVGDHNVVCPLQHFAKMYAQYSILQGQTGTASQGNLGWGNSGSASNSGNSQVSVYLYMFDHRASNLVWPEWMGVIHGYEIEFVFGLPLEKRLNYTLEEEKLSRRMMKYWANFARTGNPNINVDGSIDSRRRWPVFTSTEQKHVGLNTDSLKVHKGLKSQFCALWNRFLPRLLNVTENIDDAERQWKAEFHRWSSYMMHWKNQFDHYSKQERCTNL

[6] = test system: HT-22; assay: […] against mouse HT22 cells at 100 uM after 30 mins by LDH release assay; format: cell-based; details: ht-22, 0.5 h
[7] = test system: HT-22; assay: Cytotoxicity against mouse HT22 cells assessed as cell viability at 30 uM after 24 hrs by MTT assay; format: cell-based; details: ht-22, 24 h
[8] = Antioxidant activity against Cu2+-mediated ROS formation in HEPES buffer at pH 7.4 assessed as compound-Cu2+ complex formation at 40 uM after 5 mins by UV-vis spectrophotometric analysis; format: functional
[9] = test system: HT-22; assay: Cytotoxicity against mouse HT22 cells at 100 uM after 30 mins by LDH release assay; format: cell-based; details: ht-22, 0.5 h

Sequence of Cholinesterase (P81908 whole entry): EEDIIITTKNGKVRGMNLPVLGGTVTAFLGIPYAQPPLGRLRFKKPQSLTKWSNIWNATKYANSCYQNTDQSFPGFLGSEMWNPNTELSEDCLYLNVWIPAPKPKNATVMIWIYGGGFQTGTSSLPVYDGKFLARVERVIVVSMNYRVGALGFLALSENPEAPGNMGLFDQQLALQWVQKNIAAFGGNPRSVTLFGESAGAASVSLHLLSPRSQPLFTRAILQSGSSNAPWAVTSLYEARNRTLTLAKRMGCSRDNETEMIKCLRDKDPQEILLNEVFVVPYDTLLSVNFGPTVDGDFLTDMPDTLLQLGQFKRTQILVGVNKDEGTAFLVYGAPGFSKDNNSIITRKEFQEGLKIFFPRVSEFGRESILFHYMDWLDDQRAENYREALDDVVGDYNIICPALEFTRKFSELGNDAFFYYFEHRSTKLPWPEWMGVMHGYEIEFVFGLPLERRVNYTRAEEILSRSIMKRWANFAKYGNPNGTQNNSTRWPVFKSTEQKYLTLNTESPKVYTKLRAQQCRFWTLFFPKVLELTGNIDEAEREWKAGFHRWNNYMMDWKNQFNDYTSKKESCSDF
Sequence of Acetylcholinesterase (O42275 whole entry): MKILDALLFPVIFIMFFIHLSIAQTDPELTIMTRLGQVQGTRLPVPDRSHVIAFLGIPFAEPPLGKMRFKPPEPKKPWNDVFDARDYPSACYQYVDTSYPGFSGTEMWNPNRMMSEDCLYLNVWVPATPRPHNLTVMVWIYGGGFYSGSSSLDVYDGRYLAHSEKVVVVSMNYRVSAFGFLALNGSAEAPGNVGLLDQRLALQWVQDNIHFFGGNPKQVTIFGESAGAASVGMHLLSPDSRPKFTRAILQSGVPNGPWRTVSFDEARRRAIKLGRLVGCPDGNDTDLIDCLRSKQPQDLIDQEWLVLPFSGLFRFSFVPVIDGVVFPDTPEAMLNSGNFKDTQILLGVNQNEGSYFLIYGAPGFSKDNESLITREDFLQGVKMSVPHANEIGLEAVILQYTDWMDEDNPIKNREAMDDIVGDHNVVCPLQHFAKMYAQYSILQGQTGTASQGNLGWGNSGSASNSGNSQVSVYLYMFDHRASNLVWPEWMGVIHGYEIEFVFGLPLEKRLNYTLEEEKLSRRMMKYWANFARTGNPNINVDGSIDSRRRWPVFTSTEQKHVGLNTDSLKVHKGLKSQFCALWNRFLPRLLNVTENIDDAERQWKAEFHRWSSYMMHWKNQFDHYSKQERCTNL

| SMILES | IC50 [1] | IC50 [2] | IC50 [3] | Activity [4] | inhibition [5] | Activity [6] | Activity [7] | Activity [8] | Activity [9] |
| --- | --- | --- | --- | --- | --- | --- | --- | --- | --- |
| O=C(/C=C/c1ccc(O)c(O)c1)NCCNc1c2c(nc3cc(Cl)ccc13)CCCC2 | 9.7 µM | 5.5 µM | 1 µM | Active | – | – | – | – | – |
| O=C(/C=C/c1ccc(O)c(O)c1)NCCCNc1c2c(nc3cc(Cl)ccc13)CCCC2 | 4.8 µM | 29.5 µM | 0.3 µM | Active | Active | Toxic | Toxic | Active | Non-toxic |
| O=C(/C=C/c1ccc(O)c(O)c1)NCCNc1c2c(nc3ccccc13)CCCC2 | 14.1 µM | 2.3 µM | 1.8 µM | – | – | – | – | – | – |
| O=C(/C=C/c1ccc(O)c(O)c1)NCCCNc1c2c(nc3ccccc13)CCCC2 | 11.1 µM | 0.0837 µM | 0.0088 µM | – | – | – | – | – | – |
| O=C(/C=C/c1ccc(O)c(O)c1)NCCCCCCNc1c2c(nc3cc(Cl)ccc13)CCCC2 | 4.7 µM | 3.8 µM | 6.3 µM | Active | – | – | Toxic | – | Non-toxic |
| O=C(/C=C/c1ccc(O)c(O)c1)NCCCCCCNc1c2c(nc3ccccc13)CCCC2 | 10.4 µM | 3.9 µM | 1.9 µM | – | – | – | – | – | – |

Source: ChEMBL document CHEMBL2150930, “Design, synthesis and pharmacological evaluation of novel tacrine-caffeic acid hybrids as multi-targeted compounds against Alzheimer's disease” (Bioorg Med Chem Lett, 2012)
